Values quoted from earlier work, collected in US9775855B2, “Compositions comprising macrolide and tetracycline and their uses” (priority 2011, dated 2017).
Like-named read-outs stand apart in the source and are kept apart here. Each block holds one compound with its values, some of them ahead of it.

What was measured:
[1] = room temperature
[2] = not given; remark: listed apart in the source
[3] = individuals treated for acne for an average of 9 months

solubility in water: freely soluble
SMILES: NNC(=O)c1ccncc1 [Isoniazid, 4-pyridinecarboxylic acid, hydrazide]

solubility in water: sparingly soluble
stability [1]: stable at room temperature
SMILES: NC(=O)c1cnccn1 [Pyrazinamide, pyrazinecarboxamide]

SMILES: CN(C)c1ccc(O)c2c1C[C@H]1C[C@H]3[C@H](N(C)C)C(O)=C(C(N)=O)C(=O)[C@@]3(O)C(O)=C1C2=O [Minocycline]
penetration of the cerebral spinal fluid (CSF) ([2]; human beings, compared with doxycycline and other tetracyclines): better than doxycycline and other tetracyclines
crossing the blood-brain barrier ([2]; in vivo): capable of crossing the blood-brain barrier
frequency of adverse events [3]: one in a million

solubility in water (at neutral pH): very slightly soluble
SMILES: CO[C@H]1/C=C/O[C@@]2(C)Oc3c(C)c(O)c4c(O)c(c(/C=N/N5CCN(C)CC5)c(O)c4c3C2=O)NC(=O)/C(C)=C\C=C\[C@H](C)[C@H](O)[C@@H](C)[C@@H](O)[C@@H](C)[C@H](OC(C)=O)[C@@H]1C [Rifampin, 3-[[(4-methyl-1-piperazinyl)imino]-methyl]-rifamycin]
